The subject of data set [1] is other four DA receptor subtypes. The data set is described as follows: Binding to the other DA receptor subtypes. The conditions noted are these: result in words.
Data set [2] deals with apomorphine (APO)-induced climbing behavior. As to conditions: for mice exhibiting inhibition of climbing: at higher dosages of each agent.
In data set [3] the target is T1, D2R (Homo sapiens, UniProt P14416). The data set is described as follows: cell-based. The format is cell-based. The conditions noted are these: for recruitment of β-arrestin-2 to the D2R: result in words; for Emax: normalized to vehicle (0%) and quinpirole (100%), read-out: β-Arrestin Emax.
For data set [4], the system named is catalepsy. In words: Catalepsy bar test.
A short description of data set [5]: Pharmacokinetics, plasma and brain levels by HPLC-PDA. As to conditions: for half-life: t1/2, elimination.
For data set [6], the system named is righting reflex. The data set is described as follows: Righting test (sedation). The format is in vivo. As to conditions: rats, following CLP and bar tests.
Data set [7] has as its target T1, D2R. The format is binding.

The record followed here is patent US11129831B2, “Identification of agents displaying functional activation of dopamine D2 and D4 receptors” (Florida A&M University, priority 2017, dated 2021).

T1 sequence (P14416 whole entry): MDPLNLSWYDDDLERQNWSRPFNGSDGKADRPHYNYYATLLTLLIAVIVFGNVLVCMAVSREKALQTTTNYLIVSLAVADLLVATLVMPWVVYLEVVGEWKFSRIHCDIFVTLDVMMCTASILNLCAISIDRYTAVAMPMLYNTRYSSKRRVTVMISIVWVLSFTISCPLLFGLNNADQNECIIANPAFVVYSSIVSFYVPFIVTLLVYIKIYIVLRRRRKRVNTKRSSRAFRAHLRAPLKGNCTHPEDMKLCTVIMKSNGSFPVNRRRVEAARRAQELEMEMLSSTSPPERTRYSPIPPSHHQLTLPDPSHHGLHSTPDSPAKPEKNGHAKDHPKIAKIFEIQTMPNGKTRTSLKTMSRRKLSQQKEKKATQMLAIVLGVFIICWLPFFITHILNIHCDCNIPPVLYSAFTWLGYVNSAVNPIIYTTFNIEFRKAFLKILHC

Take `Br.Br.Br.c1cnc(N2CCN(CCCc3nc4ccccc4s3)CC2)nc1` [Compound 28, 2-(3-(4-(Pyrimidin-2-yl)piperazin-1-yl)propyl)benzo[d]thiazole trihydrobromide]: the “binding affinity to the other four DA receptor subtypes” value in data set [1] was “little or no binding affinity”.

`Fc1ccc(CCCCN2CCN(c3ccccn3)CC2)cc1` [SYA16263]: the “mice exhibiting inhibition of climbing” value in data set [2] was roughly 100%. For the same compound, in data set [3], the “recruitment of β-arrestin-2 to the D2R” value is on record as “promotes D2-mediated β-arrestin-2 translocation”. In addition, the “mean time on bar” value in data set [4] (rats, up to 239 μmole/kg (75 mg/kg), 19×ED50apom, no catalepsy) is less than 20 s. For the same compound, the AUC0-t is on record as 86 μg · h/(mL or g) in data set [5] (brain, rats, ip 50 mg/kg) and 5.4 μg · h/(mL or g) in data set [5] (plasma, rats, ip 50 mg/kg). Moreover, the tmax in data set [5] (brain, rats, ip 50 mg/kg) is 10 min; in data set [5] (rat, in vivo, ip, 50 mg/kg) it was 10.2 min. In data set [5] (plasma, rats, ip 50 mg/kg, used for BB), this compound gave a Cplasma of 5.23. The same compound showed a Cmax in data set [5] (rat, in vivo, ip, 50 mg/kg) of 63500 ng/g. In data set [5] (rat, in vivo, ip, 50 mg/kg, BB=Cbrain/Cplasma, rats, ip 50 mg/kg, at ~equilibrium point), this compound showed a Kp at 10 min of 12.1. For the same compound, the half-life lay in the range of 174 to 186 min in data set [5] (rat, in vivo, ip, 50 mg/kg, brain, rats, ip 50 mg/kg) and 44.4 to 58.8 min in data set [5] (rat, in vivo, ip, 50 mg/kg, plasma, rats, ip 50 mg/kg). Moreover, the “Log BB” value in data set [5] (rats, ip 50 mg/kg) was 1.08. The “brain concentration at 24-hour point” value in data set [5] (rats, ip 50.0 mg/kg, 24 h) is recorded as “near or below the detection limit”. For the same compound, the “plasma concentration at 24-hour point” value in data set [5] (rats, ip 50.0 mg/kg, 24 h) is given as “below the detection limit”. The “righting after catalepsy testing” value in data set [6] is listed as “all rats were observed to right themselves”.

Consider `Fc1ccc(OCCCN2CCN(c3ccccn3)CC2)cc1` [SYA16264], for which the Emax in data set [3] was determined as 75.7%. Also, the “mean time on bar” value in data set [4] (male, Sprague-Dawley, rat, in vivo, 60 min) is less than 20 s. In addition, in data set [6], the “righting after catalepsy testing” value is reported as “All rats righted themselves”.

Regarding `Fc1ccc(CCCCN2CCN(c3ccc(Cl)cc3)CC2)cc1` [SYA16267], in data set [3], the Emax came out at 5.1% and the “recruitment of β-arrestin-2 to the D2R” value was “significant loss of the ability”. Also, in data set [3] (β-arrestin-2 recruitment to D2R), the half-maximal effective concentration (EC50) is 248 nM. This compound also came in with a Ki in data set [7] of 284 ± 21 nM.

As to `Fc1ccc(CCCCN2CCN(c3ncccn3)CC2)cc1` [SYA16268], the Emax in data set [3] was found to be 71.9%.

Consider `O=C(CCCN1CCC(O)(c2ccc(Cl)cc2)CC1)c1ccc(F)cc1` [haloperidol], for which the “mice exhibiting inhibition of climbing” value in data set [2] is roughly 100%. For the same compound, the “antipsychotic activity in animal models of schizophrenia (FIG. 10A)” value in data set [2] (result in words) is recorded as “dose-dependent antipsychotic activity”. Also, the “catalepsy at 6×ED50 (FIG. 10B)” value in data set [4] (6×ED50 values, result in words) is recorded as “significant catalepsy”.
